Measured values taken from patent publication US20040191312A1, “5-HT3 receptor agonists as neuroprotectors” (priority 2002, published 2004).

Key:
5-HT3 receptor = biological target: T1, 5-HT3 receptor (Homo sapiens, UniProt P46098); settings: known 5-HT3 agonists; van Hooft et al. 1997, Morain et al. 1994; cited from earlier work
T1 sequence (P46098 24-478): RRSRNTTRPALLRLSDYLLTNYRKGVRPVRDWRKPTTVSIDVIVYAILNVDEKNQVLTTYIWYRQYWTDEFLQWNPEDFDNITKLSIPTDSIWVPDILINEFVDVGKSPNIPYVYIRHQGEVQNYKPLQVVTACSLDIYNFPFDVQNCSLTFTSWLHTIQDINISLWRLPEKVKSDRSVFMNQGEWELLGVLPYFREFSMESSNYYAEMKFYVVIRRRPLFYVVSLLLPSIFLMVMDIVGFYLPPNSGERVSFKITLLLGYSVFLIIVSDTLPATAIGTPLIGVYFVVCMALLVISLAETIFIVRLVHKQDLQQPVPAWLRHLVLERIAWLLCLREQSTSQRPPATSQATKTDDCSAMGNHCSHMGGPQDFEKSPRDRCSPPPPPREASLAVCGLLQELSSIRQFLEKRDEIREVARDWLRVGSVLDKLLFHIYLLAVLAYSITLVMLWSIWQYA

[1] = system: primary neuron cultures (OGD-induced cell death); assay: LOPAC library screen using the oxygen-glucose deprivation (OGD) assay, ATP content as index of cell viability; settings: for activity at 10 µM: Rattus norvegicus, Primary neuron, read-out: Activity (% Cells Alive)
Method: Primary neuron cultures were prepared as follows: Brain cortices from E18 rat brains were dissected in DPBS without calcium and magnesium. They were digested at 37° C. for 30 min with trypsin. The digestion was stopped by addition of MEM, 10% Fetal Bovine Serum (FBS)and 10% Horse Serum. DNase (10 U/ml) was also added. The tissues were mechanically triturated using a pipette. This step was repeated until all cells were dissociated and then they were filtered through a 70 um Nitrex mesh. The cells were counted and plated in poly ornithine-coated 96-well culture plates at 5×10^5 cells/well in MEM containing 10% HS and 10% FBS. Three days later, the medium was changed to neurobasal-serum free containing B27 and SATO (Sodium selenite 4 μg/ml, transferrrin 100 μg/ml, BSA 100 μg/ml, progesterone 62 μg/ml, putrescine 160 μg/ml). 5-Fluoro-2′deoxyuridine (FdU 30 μM) was added to inhibit the dividing microglia from the cultures. The culture medium was changed every 3 days leaving half volume of the old (conditioned) media and adding half volume of fresh media. All experiments were performed in 11-12 days-old neuronal cultures. The cells were maintained at 37° C. in a 5% CO2 humidified incubator.
The compounds from the LOPAC library, obtained from Sigma, were plated in 96-wells at 200 μM (20× the final concentration).
The neuronal cultures were pre-incubated with the compounds (10 μM final concentration) for 2 hours. The cells were then subjected to oxygen glucose deprivation (OGD) for 120 min at 37° C. in presence of the compounds of the library. Cultures were placed in an anaerobic chamber (Forma Scientific) and washed two times with balanced salt solution (116 mM NaCl, 5.4 mM KCl, 1 mM NaH2PO4, 1.8 mm CaCl2, 26.2 mM NaHCO3, 0.01 mM glycine, pH=7.4) lacking glucose and aerated with an anaerobic gas mix (85% N2/5% CO2/10% H2) to remove residual oxygen. Control cultures were kept in the original neurobasal media but were submitted to the anaerobic conditions. MK-801 (10 μM), a non competitive NMDA receptor antagonist was used to prevent cell death after OGD caused by activation of the NMDA receptors. To terminate the oxygen glucose deprivation, the cells were removed from the anaerobic chamber and the OGD media was removed and replaced with neurobasal media. The compounds were added back for an additional 20 hours.
Cells were lysed and ATP content was measured as an index for cell viability using a commercially available reagent (Cell Titter Glo from Promega). This assay generates a luminescent signal produced by the luciferase reaction.

SMILES	EC50 (5-HT3 receptor) [µM]	activity at 10 µM [1] [%]	Activity (% Cells Alive) ([1]; 10 μM compound, 2 h pre-incubation, OGD 120 min, compound added back 20 h, ATP content (Cell Titter Glo)) [%]
Cc1[nH]c2ccc(O)cc2c1CCN [2-methyl-5-HT, reference compound]	5 to 8	–	–
N=C(N)NC(=N)Nc1cccc(Cl)c1 [Formula I, 1-(m-chlorophenyl)-biguanide]	0.4	106 ± 6	–
N=C(N)NC(=N)Nc1ccccc1 [Formula II, N-phenyl-imidocarbonimidicdiamide]	22	67 ± 25	–
Cc1[nH]c2ccc(O)cc2c1CCN.O=C(O)/C=C\C(=O)O [Formula III, 2-methyl-5-hydroxytryptaminemaleate]	–	–	106 ± 25
CN1CCN(c2ccc3ccccc3n2)CC1 [Formula IV, 2-(1-(4-methyl)-piperazineyl)quinolinedimaleate]	–	103 ± 30	–
NC1CCN(c2cccc(Cl)n2)CC1 [Formula V, 1-(6-chloro-2-pyridinyl)-4-piperidinamine]	–	80 ± 27	–
